Laboratory results taken from patent US8148425B2, “Pharmaceutical composition containing phloroglucinol and paracetamol” (Promindus (Actions Promotionnelles Dans l'Industrie et le …, priority 2007, dated 2012).
Several values for one entry are separate records, joined by “and”; a condition that tells them apart may be missing. Identical values can stand only once.

Tested on: painful spasm caused by intraperitoneal injection of phenylbenzoquinone in mice
Assay: Siegmund test or Writhing test (phenylbenzoquinone-induced painful spasm)
Format: in vivo, mice (male, Swiss strain)
Details: esophageal tube, 30 min before phenylbenzoquinone
Description: During said tests, the antispasmodic and analgesic activity of phloroglucinol, of paracetamol, and of phloroglucinol combined with paracetamol was evaluated using the Siegmund test or “Writhing test”. The principle of this test, which is familiar to those skilled in the art, is briefly summarized hereinafter. The intraperitoneal injection of phenylbenzoquinone in mice causes a painful spasm, which can be reduced with antispasmodic substances (causal medication) and analgesic substances (symptomatic medication).
The test was carried out on batches of 10 male mice, of the Swiss strain, having an average weight of 22 g±2. The spasmodic and painful syndrome caused by the intraperitoneal injection of 0.25 ml of the phenylbenzoquinone solution is characterized by hind limb stretching movements and dorso-abdominal musculature twisting movements, which accounted for a period of time of 30 min, starting from 15 min following the administration of the phenylbenzoquinone.
An antispasmodic and analgesic effect manifests itself through a reduction in the number of spasmodic attacks, which is dependent on the dose. For each test, the substance being studied is administered by means of an esophageal tube, 30 min before the phenylbenzoquinone.
For experimental ease, the following were used: • phloroglucinol Lyoc (lyophilizate), and • effervescent paracetamol (tablet); the two substances being perfectly soluble and miscible.
To test the products administered in isolation (prior art), on the one hand, phloroglucinol lyocs (lyophilized systems) were dissolved in distilled water, and on the other hand, effervescent paracetamol tablets were solubilized in distilled water (the solution obtained has a pH of 5).
To test the pharmaceutical compositions of the invention, such phloroglucinol lyocs (lyophilized systems) and such effervescent paracetamol tablets were dissolved and solubilized together. The solution which contains the two active ingredients itself also has a pH of 5.
Given the metabolism in this animal species, the mouse, which is more accelerated than in humans, those skilled in the art, specialists in pharmacology, most commonly use doses which are multiples of the human dose in order to be able to readily objectivize the results.
The results are expressed as percentage of inhibition of the spasm and of the pain relative to control animals which receive only 20 ml/kg of distilled water.

Structure (SMILES) | % inhibition of the spasm and of the pain relative to control animals (paracetamol 50 mg/kg, mice (repeated in each of four series)) | % inhibition of the spasm and of the pain relative to control animals (phloroglucinol 40 mg/kg, mice) [%] | % inhibition of the spasm and of the pain relative to control animals (phloroglucinol 80 mg/kg, mice) [%] | % inhibition of the spasm and of the pain relative to control animals (phloroglucinol 100 mg/kg, mice) [%] | % inhibition of the spasm and of the pain relative to control animals (phloroglucinol 120 mg/kg, mice) [%]
CC(=O)Nc1ccc(O)cc1 [Paracetamol, 4-acetylaminophenol] | 40% and 39% and 37% |  |  |  | 
Oc1cc(O)cc(O)c1 [Phloroglucinol, 1,3,5-trihydroxy-benzene] |  | 7 | 21 | 27 | 32
